According to patent US6264916A, “N,N-dimethyldiatrizoic acid and its conjugates as hepatobiliary agents for x-ray CT imaging” (Bracco Research, USA, priority 2000, dated 2001):
Where two headings read alike, the source gives them in different places.

Experiment: Biodistribution studies in mice (radioiodinated compounds, % ID/g-tissue)
Assay type: in vivo
Details: tracer level, but MDTA-Na 0.18M and MDTA-NMG 0.19M; for tissue uptake at 1 min / tissue uptake at 5 min / tissue uptake at 1 h: mouse, iv
Experimental: All of the new analogs were radiolabeled in order to determine their physical and biological properties. The iodinated compounds were exchange-labeled by heating with Na^125 I in the presence of CuSO4 and Na2 S2 O5 in glacial acetic acid at 135-150° C. for 1 h, followed by HPLC purification using a nucleosil C18 column and CH3 CN--H2 O containing 0.1% TFA as an eluent. In some cases (e.g. the compound of Example 12) the radioiodination was carried out by heating with Na*I in HOAc--NaOAc (pH 4.6) at 100° C. for 15 min. In all cases radiolabeled compounds of acceptable radiochemical purity and specific activity were obtained.
The compound of formula I, N,N-dimethyl-diatrizoic acid, was similarly radiolabeled for biological studies.
a) For intravenous administration the preferred vehicle for the compounds of formula I, II and III is bovine serum albumin, however, other physiologically acceptable vehicles may also be used.
Biodistribution studies were conducted in mice and the results are given in Table I. X-Ray CT images of MDTA in mice and rats indicate that these hydrophobic diatrizoate analogs may be of promise for liver imaging.

[1] = blood, blood, 1', read-out: Biodistribution, Blood 1'
[2] = blood, blood, 5', read-out: Biodistribution, Blood 5'
[3] = blood, blood, 60', read-out: Biodistribution, Blood 60'
[4] = kidney, kidney, 1', read-out: Biodistribution, Kidney 1'
[5] = kidney, kidney, 5', read-out: Biodistribution, Kidney 5'
[6] = kidney, kidney, 60', read-out: Biodistribution, Kidney 60'
[7] = liver, liver, 1', read-out: Biodistribution, Liver 1'
[8] = liver, liver, 5', read-out: Biodistribution, Liver 5'
[9] = liver, liver, 60', read-out: Biodistribution, Liver 60'
[10] = small/large intestine, small/large intestine, 1', read-out: Biodistribution, Sm/Lrg. Intestine 1'
[11] = small/large intestine, small/large intestine, 5', read-out: Biodistribution, Sm/Lrg. Intestine 5'
[12] = small/large intestine, small/large intestine, 60', read-out: Biodistribution, Sm/Lrg. Intestine 60'

| tissue uptake at 1 min [1] | tissue uptake at 5 min [2] | tissue uptake at 1 h [3] | tissue uptake at 1 min [4] | tissue uptake at 5 min [5] | tissue uptake at 1 h [6] | tissue uptake at 1 min [7] | tissue uptake at 5 min [8] | tissue uptake at 1 h [9] | tissue uptake at 1 min [10] | tissue uptake at 5 min [11] | tissue uptake at 1 h [12] | other results | Molecule |
| --- | --- | --- | --- | --- | --- | --- | --- | --- | --- | --- | --- | --- | --- |
|  |  |  |  |  |  |  |  |  |  |  |  | Biodistribution, Blood 1' (blood, 1', 1 min): 6.16 % ID/g-tissue; Biodistribution, Blood 5' (blood, 5', 5 min): 0.46 % ID/g-tissue; Biodistribution, Blood 60' (blood, 60', 60 min): 0.26 % ID/g-tissue; Biodistribution, Kidney 1' (kidney, 1', 1 min): 3.32 % ID/g-tissue; Biodistribution, Kidney 5' (kidney, 5', 5 min): 2.09 % ID/g-tissue; Biodistribution, Kidney 60' (kidney, 60', 60 min): 0.39 % ID/g-tissue; Biodistribution, Liver 1' (liver, 1', 1 min): 30.29 % ID/g-tissue; Biodistribution, Liver 5' (liver, 5', 5 min): 32.33 % ID/g-tissue; Biodistribution, Liver 60' (liver, 60', 60 min): 3.16 % ID/g-tissue; Biodistribution, Sm/Lrg. Intestine 1' (small/large intestine, 1', 1 min): 0.51 % ID/g-tissue; Biodistribution, Sm/Lrg. Intestine 5' (small/large intestine, 5', 5 min): 2.71 % ID/g-tissue; Biodistribution, Sm/Lrg. Intestine 60' (small/large intestine, 60', 60 min): 20.21 % ID/g-tissue | 9(10)-N-(4-(((3,5-Bis-(acetylmethylamino)-2,4,6-triiodophenyl)carbonyl)amino)benzoyl)amino-octadecanoic acid [9/10-F-18P-MDTA] |
| 4.57 %ID/g | 0.81 %ID/g | 0.03 %ID/g | 17.1 %ID/g | 5.69 %ID/g | 0.16 %ID/g | 12.8 %ID/g | 10.6 %ID/g | 1.03 %ID/g | 1.28 %ID/g | 8.81 %ID/g | 16.5 %ID/g |  | CC(=O)N(C)c1c(I)c(C(=O)NCC(=O)O)c(I)c(N(C)C(C)=O)c1I [Example F2-DP-MDTA, 4-[[[3,5-Bis(acetylmethylamino)-2,4,6-triiodophenyl]carbonyl]amino]-acetic acid] |
| 4.83 %ID/g | 0.96 %ID/g | 0.04 %ID/g | 11.5 %ID/g | 5.83 %ID/g | 0.33 %ID/g | 17.9 %ID/g | 12.9 %ID/g | 2.25 %ID/g | 2.47 %ID/g | 9.54 %ID/g | 25.4 %ID/g |  | CC(=O)N(C)c1c(I)c(C(=O)Nc2ccc(CC(=O)O)cc2)c(I)c(N(C)C(C)=O)c1I [Example F2-P-MDTA, 4-(((3,5-Bis(Acetylmethylamino)-2,4,6-triiodophenyl)carbonyl)amino)-benzeneacetic acid] |
| 4.91 %ID/g | 0.82 %ID/g | 0.12 %ID/g | 17.9 %ID/g | 7.89 %ID/g | 0.05 %ID/g | 16.1 %ID/g | 11.9 %ID/g | 0.33 %ID/g | 1.73 %ID/g | 11.3 %ID/g | 21.2 %ID/g |  | CC(=O)N(C)c1c(I)c(C(=O)NCCCC(=O)O)c(I)c(N(C)C(C)=O)c1I [Example F4-DP-MDTA, 4-[[[3,5-Bis(acetylmethylamino)-2,4,6-triiodophenyl]carbonyl]amino]-butanoic acid] |
| 3.55 %ID/g | 0.57 %ID/g | 0.07 %ID/g | 5.63 %ID/g | 5.41 %ID/g | 0.63 %ID/g | 29.6 %ID/g | 29.4 %ID/g | 6.13 %ID/g | 1.71 %ID/g | 4.56 %ID/g | 20.4 %ID/g |  | CC(=O)N(C)c1c(I)c(C(=O)Nc2ccc(CCCC(=O)O)cc2)c(I)c(N(C)C(C)=O)c1I [Example F4-P-MDTA, 4-(((3,5-Bis(acetylmethylamino)-2,4,6-triiodophenyl)carbonyl)amino)benzenebutyric acid] |
| 2.44 %ID/g | 0.57 %ID/g | 0.05 %ID/g | 9.5 %ID/g | 8.33 %ID/g | 0.16 %ID/g | 17.1 %ID/g | 9.81 %ID/g | 0.77 %ID/g | 4.92 %ID/g | 14.5 %ID/g | 22.2 %ID/g |  | CC(=O)N(C)c1c(I)c(C(=O)NCCCCCCC(=O)O)c(I)c(N(C)C(C)=O)c1I [Example F7-DP-MDTA] |
| 2.38 %ID/g | 0.57 %ID/g | 0.15 %ID/g | 4.28 %ID/g | 2.94 %ID/g | 0.3 %ID/g | 39.5 %ID/g | 37.2 %ID/g | 5.02 %ID/g | 1.38 %ID/g | 6.2 %ID/g | 26.8 %ID/g |  | CC(=O)N(C)c1c(I)c(C(=O)Nc2ccc(CCCCCCC(=O)O)cc2)c(I)c(N(C)C(C)=O)c1I [Example F7-P-MDTA, 4-[[[3,5-Bis(acetylmethylamino)-2,4,6-triiodophenyl]carbonyl]amino]benzeneheptanoic acid] |
| 9.14 %ID/g | 0.74 %ID/g | 0.08 %ID/g | 6.21 %ID/g | 3.63 %ID/g | 0.1 %ID/g | 57.9 %ID/g | 60.1 %ID/g | 2.96 %ID/g | 1.14 %ID/g | 3.06 %ID/g | 38.2 %ID/g |  | CC(=O)N(C)c1c(I)c(C(=O)Nc2ccc(CCCCCCCCCCC(=O)O)cc2)c(I)c(N(C)C(C)=O)c1I [Example F11-P-MDTA, 4-[[[3,5-Bis(acetylmethylamino)-2,4,6-triiodophenyl]carbonyl]amino]benzeneundecanoic acid] |
| 2.38 %ID/g | 0.39 %ID/g | 0.04 %ID/g | 9.89 %ID/g | 5.72 %ID/g | 0.07 %ID/g | 28.9 %ID/g | 16.6 %ID/g | 2.17 %ID/g | 2.28 %ID/g | 11.6 %ID/g | 28 %ID/g |  | CC(=O)N(C)c1c(I)c(C(=O)NCCCCCCCCCCCC(=O)O)c(I)c(N(C)C(C)=O)c1I [Example F12-DP-MDTA] |
| 24.6 %ID/g | 4.28 %ID/g | 0.12 %ID/g | 8.28 %ID/g | 5.1 %ID/g | 0.34 %ID/g | 46.4 %ID/g | 76.3 %ID/g | 6.18 %ID/g | 2.13 %ID/g | 4.85 %ID/g | 43.7 %ID/g |  | CC(=O)N(C)c1c(I)c(C(=O)Nc2ccc(CCCCCCCCCCCCCCC(=O)O)cc2)c(I)c(N(C)C(C)=O)c1I [Example F15-P-MDTA, 4-[[[3,5-Bis(acetylmethylamino)-2,4,6-triiodophenyl]carbonyl]amino]benzenepentadecanoic acid] |
| 36.7 %ID/g | 13.2 %ID/g | 0.68 %ID/g | 5.56 %ID/g | 5.45 %ID/g | 2.67 %ID/g | 17.2 %ID/g | 24.7 %ID/g | 10.4 %ID/g | 1.05 %ID/g | 2.4 %ID/g | 14.4 %ID/g |  | CC(=O)N(C)c1c(I)c(C(=O)Nc2ccc(CCCCCCCCCCCCCCCCCCC(=O)O)cc2)c(I)c(N(C)C(C)=O)c1I [Example F19-P-MDTA] |
